Test results: patent US10457710B2, “Antimicrobial peptides, their variants and uses” (priority 2015, dated 2019)

Key:
Test in all cases: MIC, micro broth dilution assay
Type in all cases: cell-based
[1] = test system: Staphylococcus aureus (ATCC 25923)
Experimental: (§1) Minimum inhibition concetrations (MICs) were determined against Escherichia coli (ATCC 25922), Staphylococcus aureus (ATCC 25923), Klebsiella pneumoniae (ATCC 10031) and Pseudomonas aeruginosa (ATCC 27853). Also clinical strains of E. coli, K. pneumoniae, E. cloacae, P. aeruginosa, Serratia marcescens, Proteus mirabilis, S. pneumoniae, Acinetobacter baumannii, A. johnsonii and S. aureus were used for MICs assays. Additionally, clinical strains of yeast including Candida albicans, C. glabrata, C. parapsilosis and C. quillermondiae were used. The susceptibility of these microorganisms to Chain peptides were determined using micro broth dilution assay. Colonies of the respective microorganism from Muller Hinton (MH) agar plates incubated overnight were suspended in MH broth media and final concentration of microorganism was adjusted to 5.0×10^5 cfu/ml. An aliquot of 10 μl of each Chain peptide, or gentamicin, tetracycline as reference antibiotics were added in differing concentrations along with 90 μl of bacterial suspension to 96 well polypropylene plates and incubated at 37° C. for 20 to 24 hours. […] Similarly, antifungal MICs were tested in Potato dextrose broth.

[2] = test system: Pseudomonas aeruginosa (ATCC 27853)
Experimental: as §1

[3] = test system: Escherichia coli (ATCC 25922)
Experimental: as §1

[4] = test system: Klebsiella pneumoniae (ATCC 10031)
Experimental: as §1

Gentamicin [reference compound]
Minimum inhibitory concentration, Staphylococcus aureus (ATCC 25923) [1]: 0.25 µg/mL | Minimum inhibitory concentration, Pseudomonas aeruginosa (ATCC 27853) [2]: 0.25 µg/mL | Minimum inhibitory concentration, Escherichia coli (ATCC 25922) [3]: 1 µg/mL | Minimum inhibitory concentration, Klebsiella pneumoniae (ATCC 10031) [4]: 0.25 µg/mL
